US7615569B2, “Inhibitors of ion channels” (Icagen, Inc., priority 2005, dated 2009)

Columns and labels:
[1] = biological target: T1, hSCN3A (Homo sapiens, UniProt Q9NY46); test: SCN3A inhibitory activity in HEK cells stably expressing hSCN3A (whole-cell patch clamp / radiotracer efflux HTS); type: cell-based; settings: HEK cells stably transfected with hSCN3A
T1 construct: expressed in transfected cells

[2] = biological target: Nav1.8 (Homo sapiens, UniProt Q9Y5Y9); settings: read-out: TTX IC-50; cited from earlier work
[3] = biological target: Nav1.2 (Homo sapiens, UniProt Q99250); settings: read-out: TTX IC-50; cited from earlier work
[4] = biological target: Nav1.6 (Homo sapiens, UniProt Q9UQD0); settings: read-out: TTX IC-50; cited from earlier work
[5] = biological target: Nav1.1 (Homo sapiens, UniProt P35498); settings: read-out: TTX IC-50; cited from earlier work
[6] = biological target: Nav1.9 (Homo sapiens, UniProt Q9UI33); settings: read-out: TTX IC-50; cited from earlier work
[7] = biological target: Nav1.3 (Homo sapiens, UniProt Q9NY46); settings: read-out: TTX IC-50; cited from earlier work
[8] = cited from earlier work

T1 sequence (Q9NY46 whole entry): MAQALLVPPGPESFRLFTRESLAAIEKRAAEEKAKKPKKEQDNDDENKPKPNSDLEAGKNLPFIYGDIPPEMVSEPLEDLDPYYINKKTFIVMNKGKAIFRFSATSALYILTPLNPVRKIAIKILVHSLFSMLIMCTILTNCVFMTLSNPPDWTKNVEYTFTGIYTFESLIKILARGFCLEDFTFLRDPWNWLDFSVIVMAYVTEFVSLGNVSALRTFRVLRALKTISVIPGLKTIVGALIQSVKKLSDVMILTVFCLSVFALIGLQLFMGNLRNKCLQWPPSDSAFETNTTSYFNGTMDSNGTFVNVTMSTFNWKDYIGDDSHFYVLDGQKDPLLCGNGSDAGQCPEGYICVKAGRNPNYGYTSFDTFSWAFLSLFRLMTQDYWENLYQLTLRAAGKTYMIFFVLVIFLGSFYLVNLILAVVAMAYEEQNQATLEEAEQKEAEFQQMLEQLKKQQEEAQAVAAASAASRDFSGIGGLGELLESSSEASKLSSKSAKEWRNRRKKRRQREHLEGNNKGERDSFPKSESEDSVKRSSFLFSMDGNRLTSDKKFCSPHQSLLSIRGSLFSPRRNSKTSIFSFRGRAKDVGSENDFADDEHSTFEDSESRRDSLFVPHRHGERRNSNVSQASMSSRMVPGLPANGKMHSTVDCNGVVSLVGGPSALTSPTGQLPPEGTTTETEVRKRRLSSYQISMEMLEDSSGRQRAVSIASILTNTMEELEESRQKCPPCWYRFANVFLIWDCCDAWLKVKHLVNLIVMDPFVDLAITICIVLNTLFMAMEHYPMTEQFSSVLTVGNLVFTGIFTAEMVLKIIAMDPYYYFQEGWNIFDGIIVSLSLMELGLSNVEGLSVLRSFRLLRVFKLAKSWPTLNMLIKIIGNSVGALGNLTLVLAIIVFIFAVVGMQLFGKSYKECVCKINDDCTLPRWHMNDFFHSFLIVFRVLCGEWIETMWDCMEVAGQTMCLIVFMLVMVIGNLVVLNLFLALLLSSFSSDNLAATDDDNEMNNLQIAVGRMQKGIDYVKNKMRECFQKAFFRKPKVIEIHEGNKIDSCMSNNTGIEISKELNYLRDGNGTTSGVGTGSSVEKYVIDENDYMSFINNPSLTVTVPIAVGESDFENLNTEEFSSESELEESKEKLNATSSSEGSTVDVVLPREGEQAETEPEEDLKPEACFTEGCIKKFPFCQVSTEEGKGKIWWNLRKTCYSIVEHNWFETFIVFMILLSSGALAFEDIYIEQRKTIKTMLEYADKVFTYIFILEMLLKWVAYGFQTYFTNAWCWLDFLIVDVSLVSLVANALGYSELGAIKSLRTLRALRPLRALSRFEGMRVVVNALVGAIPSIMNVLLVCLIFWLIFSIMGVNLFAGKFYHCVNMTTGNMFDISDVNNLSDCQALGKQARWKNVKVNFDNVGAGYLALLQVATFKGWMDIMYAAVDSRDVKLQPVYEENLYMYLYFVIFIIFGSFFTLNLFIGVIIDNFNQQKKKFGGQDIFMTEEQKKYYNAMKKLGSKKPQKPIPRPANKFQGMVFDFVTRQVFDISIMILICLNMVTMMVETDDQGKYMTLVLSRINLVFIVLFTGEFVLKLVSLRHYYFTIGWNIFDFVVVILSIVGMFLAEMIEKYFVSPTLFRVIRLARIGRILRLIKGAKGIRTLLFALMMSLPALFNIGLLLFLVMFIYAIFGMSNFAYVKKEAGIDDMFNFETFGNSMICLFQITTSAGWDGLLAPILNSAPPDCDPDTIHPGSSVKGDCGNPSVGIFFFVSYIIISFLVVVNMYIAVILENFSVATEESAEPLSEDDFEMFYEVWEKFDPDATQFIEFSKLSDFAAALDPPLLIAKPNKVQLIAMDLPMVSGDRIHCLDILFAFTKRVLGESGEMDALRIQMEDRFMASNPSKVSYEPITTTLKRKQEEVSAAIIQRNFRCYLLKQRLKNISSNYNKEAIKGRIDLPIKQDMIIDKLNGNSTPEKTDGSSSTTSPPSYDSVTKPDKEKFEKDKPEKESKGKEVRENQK
Sequence of Nav1.2 (Q99250 whole entry, looked up): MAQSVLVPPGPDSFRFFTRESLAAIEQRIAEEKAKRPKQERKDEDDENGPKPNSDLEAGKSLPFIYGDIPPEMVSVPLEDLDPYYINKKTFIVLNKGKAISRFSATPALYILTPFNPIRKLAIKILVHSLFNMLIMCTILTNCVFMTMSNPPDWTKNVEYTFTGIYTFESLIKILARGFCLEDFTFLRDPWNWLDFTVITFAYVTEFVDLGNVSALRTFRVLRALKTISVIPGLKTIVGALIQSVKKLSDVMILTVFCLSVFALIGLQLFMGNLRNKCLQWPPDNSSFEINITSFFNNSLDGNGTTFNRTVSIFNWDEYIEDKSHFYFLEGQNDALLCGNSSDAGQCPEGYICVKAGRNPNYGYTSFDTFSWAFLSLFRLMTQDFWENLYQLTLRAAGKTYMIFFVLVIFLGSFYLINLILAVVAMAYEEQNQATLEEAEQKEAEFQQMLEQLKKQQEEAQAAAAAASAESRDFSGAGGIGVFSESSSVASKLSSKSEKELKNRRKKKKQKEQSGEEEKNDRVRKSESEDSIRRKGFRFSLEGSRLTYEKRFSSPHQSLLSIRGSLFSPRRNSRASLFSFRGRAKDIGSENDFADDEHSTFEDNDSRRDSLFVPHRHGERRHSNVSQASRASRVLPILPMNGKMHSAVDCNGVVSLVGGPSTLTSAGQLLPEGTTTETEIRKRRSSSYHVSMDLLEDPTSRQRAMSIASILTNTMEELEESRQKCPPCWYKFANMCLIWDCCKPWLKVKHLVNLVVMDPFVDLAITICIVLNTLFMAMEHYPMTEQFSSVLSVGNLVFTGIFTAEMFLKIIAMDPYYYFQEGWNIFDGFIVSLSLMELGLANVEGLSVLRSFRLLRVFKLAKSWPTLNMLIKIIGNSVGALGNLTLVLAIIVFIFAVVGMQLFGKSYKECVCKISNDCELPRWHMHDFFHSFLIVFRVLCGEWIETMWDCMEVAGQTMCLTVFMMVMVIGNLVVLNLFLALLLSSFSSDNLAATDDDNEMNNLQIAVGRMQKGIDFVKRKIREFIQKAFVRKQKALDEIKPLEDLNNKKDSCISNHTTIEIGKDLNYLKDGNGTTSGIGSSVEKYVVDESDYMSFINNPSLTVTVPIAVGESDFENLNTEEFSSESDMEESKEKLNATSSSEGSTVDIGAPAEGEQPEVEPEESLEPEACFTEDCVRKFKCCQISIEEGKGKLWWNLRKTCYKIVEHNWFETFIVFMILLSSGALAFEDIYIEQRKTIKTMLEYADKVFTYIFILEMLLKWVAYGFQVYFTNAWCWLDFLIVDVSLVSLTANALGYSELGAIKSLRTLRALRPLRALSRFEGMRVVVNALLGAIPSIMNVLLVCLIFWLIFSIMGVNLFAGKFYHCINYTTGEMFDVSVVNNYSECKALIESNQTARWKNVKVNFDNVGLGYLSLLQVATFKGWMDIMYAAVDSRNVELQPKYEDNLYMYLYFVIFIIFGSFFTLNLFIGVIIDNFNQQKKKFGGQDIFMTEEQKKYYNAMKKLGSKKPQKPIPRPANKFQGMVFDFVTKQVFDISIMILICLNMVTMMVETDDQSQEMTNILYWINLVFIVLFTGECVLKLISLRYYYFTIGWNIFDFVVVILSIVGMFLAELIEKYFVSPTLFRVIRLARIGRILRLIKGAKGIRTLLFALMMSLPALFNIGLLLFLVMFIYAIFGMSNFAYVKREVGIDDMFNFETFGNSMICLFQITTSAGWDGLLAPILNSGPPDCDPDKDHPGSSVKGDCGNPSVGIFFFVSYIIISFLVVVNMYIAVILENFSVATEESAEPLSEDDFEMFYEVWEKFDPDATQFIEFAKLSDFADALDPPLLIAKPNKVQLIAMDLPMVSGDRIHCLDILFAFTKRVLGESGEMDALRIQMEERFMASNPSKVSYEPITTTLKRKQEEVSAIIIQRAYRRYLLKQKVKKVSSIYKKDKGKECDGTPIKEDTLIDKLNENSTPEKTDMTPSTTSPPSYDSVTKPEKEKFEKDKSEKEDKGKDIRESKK
Sequence of Nav1.3 (Q9NY46 whole entry, looked up): as the sequence (Q9NY46 whole entry) above

SMILES | IC50 [1] | other results
COCn1c(Cc2ccc(Cl)c(Cl)c2)nnc1-c1ccc(S(=O)(=O)Nc2nccs2)cc1 [Compound 97, 4-[5-(3,4-Dichloro-benzyl)-4-methoxymethyl-4H-[1,2,4]triazol-3-yl]-N-thiazol-2-yl-benzenesulfonamide] | 500 to 1000 nM | 
O=S(=O)(NCc1nccs1)c1ccc(-c2nc(Cc3cc(F)cc(F)c3)c[nH]2)cc1 [Compound 98, 4-[4-(3,5-Difluoro-benzyl)-1H-imidazol-2-yl]-N-thiazol-2-ylmethyl-benzenesulfonamide] | > 1000 nM | 
CC1(c2ccc(S(=O)(=O)Nc3nccs3)cc2)C(=O)NC(=O)N1Cc1ccc(Cl)c(Cl)c1 (stereo not shown) [Compound 99, 4-[3-(3,4-Dichloro-benzyl)-4-methyl-2,5-dioxo-imidazolidin-4-yl]-N-thiazol-2-yl-benzenesulfonamide] | > 1000 nM | 
CC1(c2ccc(S(=O)(=O)Nc3nccs3)cc2)NC(=O)N(Cc2ccc(Cl)c(Cl)c2)C1=O (stereo not shown) [Compound 100, 4-[1-(3,4-Dichloro-benzyl)-4-methyl-2,5-dioxo-imidazolidin-4-yl]-N-thiazol-2-yl-benzenesulfonamide] | > 1000 nM | 
CC1(Cc2ccc(Cl)c(Cl)c2)N=C(c2ccc(S(=O)(=O)Nc3nccs3)cc2)NC1=O (stereo not shown) [Compound 107, 4-[4-(3,4-Dichloro-benzyl)-4-methyl-5-oxo-4,5-dihydro-1H-imidazol-2-yl]-N-thiazol-2-yl-benzenesulfonamide] | > 1000 nM | 
O=S(=O)(Nc1nccs1)c1ccc(-c2nc(Cc3ccc(Cl)cc3)n[nH]2)cc1F [Compound 114, 4-[5-(4-Chloro-benzyl)-2H-[1,2,4]triazol-3-yl]-2-fluoro-n-thiazol-2-yl-benzenesulfonamide] | < 100 nM | 
O=S(=O)(Nc1nccs1)c1ccc(-c2nc(COc3c(Cl)cccc3Cl)n[nH]2)cc1F [Compound 115, 4-[5-(2,6-Dichloro-phenoxymethyl)-2H-[1,2,4]triazol-3-yl]-2-fluoro-n-thiazol-2-yl-benzenesulfonamide] | 100 to 500 nM | 
O=S(=O)(Nc1nccs1)c1ccc(-c2nc(-c3ncc(C(F)(F)F)cc3Cl)n[nH]2)cc1F [Compound 116, 4-[5-(3-Chloro-5-trifluoromethyl-pyridin-2-yl)-2H-[1,2,4]triazol-3-yl]-2-fluoro-n-thiazol-2-yl-benzenesulfonamide] | 100 to 500 nM | 
O=S(=O)(Nc1nccs1)c1ccc(-c2nc(COc3ncc(C(F)(F)F)cc3Cl)n[nH]2)cc1 [Compound 117, 4-[5-(3-Chloro-5-trifluoromethyl-pyridin-2-yloxymethyl)-2H-[1,2,4]triazol-3-yl]-n-thiazol-2-yl-benzenesulfonamide] | 500 to 1000 nM | 
O=S(=O)(Nc1nccs1)c1ccc(-c2nnc(COc3ccc(C(F)(F)F)cn3)[nH]2)cc1 [Compound 118, N-thiazol-2-yl-4-[5-(5-trifluoromethyl-pyridin-2-yloxymethyl)-4H-[1,2,4]triazol-3-yl]-benzenesulfonamide] | > 1000 nM | 
O=S(=O)(Nc1nccs1)c1ccc(-c2nc(COc3c(Cl)cccc3Cl)n[nH]2)cc1 [Compound 119, 4-[5-(2,6-Dichloro-phenoxymethyl)-2H-[1,2,4]triazol-3-yl]-n-thiazol-2-yl-benzenesulfonamide] | > 1000 nM | 
O=S(=O)(Nc1nccs1)c1ccc(-c2nnc(COc3ncc(Cl)cc3Cl)[nH]2)cc1 [Compound 120, 4-[5-(3,5-Dichloro-pyridin-2-yloxymethyl)-4H-[1,2,4]triazol-3-yl]-n-thiazol-2-yl-benzenesulfonamide] | > 1000 nM | 
O=S(=O)(Cc1ncc(Cl)s1)c1ccc(-c2nc(CCc3cc(Cl)cc(Cl)c3)c[nH]2)cc1 [Compound 122, 5-Chloro-2-(4-{4-[2-(3,5-dichloro-phenyl)-ethyl]-1H-imidazol-2-yl}-benzenesulfonylmethyl)-thiazole] | < 100 nM | 
O=S(=O)(Nc1nccs1)c1ccc(-c2cc(CCCOc3ccc(Cl)cc3Cl)[nH]n2)cc1 [Compound 123, 4-{5-[3-(2,4-Dichloro-phenoxy)-propyl]-1H-pyrazol-3-yl}-N-thiazol-2-yl-benzenesulfonamide] | 100 to 500 nM | 
O=S(=O)(Nc1nccs1)c1ccc(NCC(c2ccccc2)c2ccccc2)nc1 [Compound 124, 6-(2,2-Diphenyl-ethylamino)-pyridine-3-sulfonic acid thiazol-2-ylamide] | 500 to 1000 nM | 
NC1=N[C@H](O)[C@H]2[C@H]3O[C@]4(O)O[C@@H]([C@@H](O)[C@@]2(N1)[C@@H]4O)[C@]3(O)CO [TTX, tetrodotoxin] |  | IC50 [2]: 50000 nM; IC50 [3]: 10 nM; IC50 [4]: 6 nM; IC50 [5]: 10 nM; IC50 [6]: 1000 nM; IC50 [7]: 15 nM
NCC1(CC(=O)O)CCCCC1 [gabapentin] |  | patients respond to gabapentin treatment for neuropathic pain [8]: 30%
